Molecular target: T1, HvLD (barley limit dextrinase) (Hordeum vulgare, UniProt Q9FYY0)
T1 sequence (Q9FYY0 1-905 limits assumed): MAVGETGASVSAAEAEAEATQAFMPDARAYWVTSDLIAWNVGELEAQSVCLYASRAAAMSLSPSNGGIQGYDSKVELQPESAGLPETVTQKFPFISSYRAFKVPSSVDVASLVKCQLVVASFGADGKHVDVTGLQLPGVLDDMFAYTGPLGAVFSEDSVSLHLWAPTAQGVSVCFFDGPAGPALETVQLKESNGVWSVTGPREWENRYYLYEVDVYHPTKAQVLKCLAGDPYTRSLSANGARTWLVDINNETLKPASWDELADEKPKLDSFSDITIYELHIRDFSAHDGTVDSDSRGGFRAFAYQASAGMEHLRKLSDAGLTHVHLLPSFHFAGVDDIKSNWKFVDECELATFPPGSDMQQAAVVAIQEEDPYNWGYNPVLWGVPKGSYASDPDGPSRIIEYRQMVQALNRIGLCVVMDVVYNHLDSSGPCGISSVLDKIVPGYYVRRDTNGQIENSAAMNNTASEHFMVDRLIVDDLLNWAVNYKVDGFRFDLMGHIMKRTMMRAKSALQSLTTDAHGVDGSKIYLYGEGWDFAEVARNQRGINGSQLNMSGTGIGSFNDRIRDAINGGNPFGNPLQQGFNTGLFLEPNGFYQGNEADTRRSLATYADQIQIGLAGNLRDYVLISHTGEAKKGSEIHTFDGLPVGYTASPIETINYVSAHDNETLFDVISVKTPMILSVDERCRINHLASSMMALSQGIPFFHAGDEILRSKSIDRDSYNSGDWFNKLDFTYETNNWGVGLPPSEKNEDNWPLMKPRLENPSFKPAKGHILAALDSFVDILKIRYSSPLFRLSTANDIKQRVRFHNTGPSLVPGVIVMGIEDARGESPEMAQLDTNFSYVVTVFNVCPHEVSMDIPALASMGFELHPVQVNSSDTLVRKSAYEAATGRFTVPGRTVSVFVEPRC
Assay: LC-ESI-MS with UV quantification of transglycosylation products
Type: biochemical
Details: glycosyl donor, 10 mg/mL; acceptors pNP-sugars 8-14 mM; 20 mM sodium acetate pH 5.5; 5 mM CaCl2; 37 °C, 2 h

OC[C@H]1O[C@H](OC[C@H]2O[C@H](O[C@H]3[C@H](O)[C@@H](O)[C@@H](O[C@H]4[C@H](O)[C@@H](O)[C@@H](OC[C@H]5O[C@H](O[C@H]6[C@H](O)[C@@H](O)[C@@H](O[C@H]7[C@H](O)[C@@H](O)C(O)O[C@@H]7CO)O[C@@H]6CO)[C@H](O)[C@@H](O)[C@@H]5O)O[C@@H]4CO)O[C@@H]3CO)[C@H](O)[C@@H](O)[C@@H]2O)[C@H](O)[C@@H](O)[C@@H]1O (stereo partly drawn) [G1G3G3, 6^3-α-(6^3-α-D-glucosyl-maltotriosyl)-maltotriose]
LC-ESI-MS with UV quantification of transglycosylation products: G1G3G3 could serve as donor in HvLD TG reactions with all five pNP-sugars

— paper PMC10223164, “Exploration of the Transglycosylation Activity of Barley Limit Dextrinase for Production of Novel Glycoconjugates” (Molecules, 2023)
